Here are results for five compounds from patent US11304966B2, “Composition comprising HMOs for preventing or reducing nociception” (Glycom A/S, priority 2017, dated 2022).

In this experiment the target is T1, GPR35 receptor (Homo sapiens, UniProt Q9HC97).
T1 construct: expressed in transfected cells
As to the kind of experiment: PathHunter β-Arrestin assay, activation of GPR35 expressed in cultured cells. To be noted: for activation of GPR35: up to 10 mM; for EC50: highest concentration tested 10 mM, duplicate. The format is cell-based. An excerpt: Six human milk oligosaccharides (LNnT, LNT, 2′-FL, DFL, 6′-SL and 3′-SL) are screened for their ability to activate the GPR35 receptor in the PathHunter β-Arresin assay. This assay monitors the activation of GPR35 expressed in cultured cells, using Enzyme Fragment Complementation with β-galactosidase (β-Gal) as the functional reporter. […] EA is fused to β-Arrestin and PK is fused to GPR35. When the GPR35 is activated and β-Arrestin is recruited to the receptor, PK and EA complementation occurs, restoring β-Gal activity, which is measured using chemiluminescent Detection Reagents.
The GPR35 cell line is expanded from frozen stocks and cultured according to standard procedures. Cells are seeded in a total volume of 20 μl into white walled, 384-well microplates and incubated at 37° C. for the appropriate time prior to testing. All testing is done in duplicate. The HMO samples are held in the form of concentrated stocks in Phosphate Buffered saline (PBS). A 5× dilution compound working intermediate is prepared in PBS. Five μl of the sample is added to the cells and incubated at room temperature for 3 to 5 hours. The assay signal is generated through a single addition of 12.5 μl (50 v/v %) of PathHunter Detection reagent cocktail, followed by one-hour incubation at room temperature. Microplates are read following signal generation with a PerkinElmer Envision™ instrument for chemiluminescent signal detection. Zaprinast (which is known to be an activator of GPR35) is used as positive control. Dose-response is generated by iterative 3× dilutions of the highest concentration tested (10 mM).

T1 sequence (Q9HC97 whole entry): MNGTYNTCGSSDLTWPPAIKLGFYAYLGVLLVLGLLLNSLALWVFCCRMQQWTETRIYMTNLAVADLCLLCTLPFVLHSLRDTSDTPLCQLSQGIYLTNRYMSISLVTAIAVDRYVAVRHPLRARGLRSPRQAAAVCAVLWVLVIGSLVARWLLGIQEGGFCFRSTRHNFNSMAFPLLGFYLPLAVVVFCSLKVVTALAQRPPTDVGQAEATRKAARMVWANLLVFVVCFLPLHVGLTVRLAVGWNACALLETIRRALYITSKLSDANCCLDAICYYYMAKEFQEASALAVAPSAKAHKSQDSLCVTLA
T1 sequence (P32121 whole entry partner): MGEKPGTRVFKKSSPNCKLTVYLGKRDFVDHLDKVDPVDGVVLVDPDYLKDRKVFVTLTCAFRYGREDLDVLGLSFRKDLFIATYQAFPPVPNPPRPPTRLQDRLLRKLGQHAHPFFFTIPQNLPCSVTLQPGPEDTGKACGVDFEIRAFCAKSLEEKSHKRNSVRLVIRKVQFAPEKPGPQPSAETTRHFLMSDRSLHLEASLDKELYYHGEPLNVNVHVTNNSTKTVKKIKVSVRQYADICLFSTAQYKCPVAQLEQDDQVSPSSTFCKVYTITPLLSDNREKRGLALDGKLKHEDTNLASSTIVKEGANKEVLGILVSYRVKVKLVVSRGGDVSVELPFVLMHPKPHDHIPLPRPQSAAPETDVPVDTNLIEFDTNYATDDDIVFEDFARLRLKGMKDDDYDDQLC

As to `C[C@@H]1O[C@@H](O[C@H]2[C@H](O[C@H]3[C@H](O[C@@H]4O[C@@H](C)[C@@H](O)[C@@H](O)[C@@H]4O)[C@@H](O)C(O)O[C@@H]3CO)O[C@H](CO)[C@H](O)[C@@H]2O)[C@@H](O)[C@H](O)[C@@H]1O` (some centres unmarked) [DFL, difucosyllactose], the “activation of GPR35” value was “No activation”. As for `CC(=O)N[C@H]1[C@H](O[C@H]2[C@@H](O)[C@@H](CO)O[C@@H](O[C@H]3[C@H](O)[C@@H](O)C(O)O[C@@H]3CO)[C@@H]2O)O[C@H](CO)[C@@H](O)[C@@H]1O[C@@H]1O[C@H](CO)[C@H](O)[C@H](O)[C@H]1O` (some centres unmarked) [LNT, lacto-N-tetraose], the EC50 turned out to be 4.5 mM. In turn, `CC(=O)N[C@H]1[C@H]([C@H](O)[C@H](O)CO)O[C@@](OC[C@H]2O[C@@H](O[C@H]3[C@H](O)[C@@H](O)[C@H](O)O[C@@H]3CO)[C@H](O)[C@@H](O)[C@H]2O)(C(=O)O)C[C@@H]1O` [6′-SL, 6′-sialyllactose] displayed an EC50 of 6.5 mM. With `CC(=O)N[C@H]1[C@H]([C@H](O)[C@H](O)CO)O[C@@](O[C@H]2[C@@H](O)[C@@H](CO)O[C@@H](O[C@H]3[C@H](O)[C@@H](O)C(O)O[C@@H]3CO)[C@@H]2O)(C(=O)O)C[C@@H]1O` (some centres unmarked) [3′-SL, 3′-sialyllactose], the “activation of GPR35” value was “No activation”. Regarding `CC(=O)N[C@H]1[C@H](O[C@H]2[C@@H](O)[C@@H](CO)O[C@@H](O[C@H]3[C@H](O)[C@@H](O)C(O)O[C@@H]3CO)[C@@H]2O)O[C@H](CO)[C@@H](O[C@@H]2O[C@H](CO)[C@H](O)[C@H](O)[C@H]2O)[C@@H]1O` (mixture of isomers) [LNnT, lacto-N-neotetraose], the “activation of GPR35” value was “No activation”.
